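Exposure lasted 48 hours, with cells grown in 96-well plates and compounds tested at five concentrations. GI50: concentration for 50% inhibition of growth. TGI is the concentration that stops growth completely.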

Among the test systems are NCI-H460 lung; RPMI-8226 leukemia; OVCAR-3 ovarian; KM12 colon; HOP-92 NSCLC; SF-295 CNS; DU-145 prostate; SF-539 CNS; OVCAR-5 ovarian; HS 578T breast.
Assay in all cases: NCI-60 cell line screen, 48 h

On to `Clc1cccc(N2CCN(CCN3CCc4c([nH]c5ccccc45)C3c3cccnc3)CC2)c1` (stereo not drawn), for which the TGI in the assay on NCI-H460 lung was > 100 µM; with RPMI-8226 leukemia, > 84.1 µM; in the assay with OVCAR-3 ovarian, > 100 µM; in the assay with KM12 colon, > 100 µM; with HOP-92 NSCLC, > 86.3 µM; in the assay on SF-295 CNS, > 100 µM. Moreover, the TGI with DU-145 prostate was > 31.6 µM; in the assay on SF-539 CNS, 62.9 µM; with OVCAR-5 ovarian it was > 92.1 µM; in the assay on HS 578T breast it was > 100 µM.
For the compound `O=C1C(Cl)=C(Nc2cccc(O)c2)C(=O)N1Cc1ccc(Cl)cc1`, the GI50 is 2.87 µM in the assay with NCI-H460 lung; 1.07 µM in the assay with RPMI-8226 leukemia; 1.43 µM with OVCAR-3 ovarian; 2.11 µM in the assay on KM12 colon; 2.68 µM with SF-295 CNS; 5.48 µM in the assay on DU-145 prostate. Also, the GI50 in the assay on SF-539 CNS is 2.63 µM; in the assay on OVCAR-5 ovarian it was 15.6 µM; in the assay on HS 578T breast it was 8.51 µM. Moreover, the TGI with NCI-H460 lung was 14 µM; in the assay on RPMI-8226 leukemia it was > 100 µM; with OVCAR-3 ovarian it was 5.86 µM; in the assay with KM12 colon it was 11.3 µM; with SF-295 CNS, 18.5 µM; with DU-145 prostate it was 24.1 µM. Further, the results for the TGI with SF-539 CNS, in the assay with OVCAR-5 ovarian and with HS 578T breast were 16.6 µM, 31.6 µM and > 100 µM, respectively.
As for `Cn1c(/C=C(\C#N)c2cccc(C(F)(F)F)c2)nc2c(N3CCOCC3)nc(Cl)nc21`, the GI50 is 1.67 µM in the assay with NCI-H460 lung; 0.252 µM in the assay on RPMI-8226 leukemia; 0.665 µM in the assay with OVCAR-3 ovarian; 1.82 µM in the assay on KM12 colon; 0.342 µM with HOP-92 NSCLC; 1.83 µM in the assay on SF-295 CNS. The GI50 with DU-145 prostate was 1.22 µM; with SF-539 CNS it was 1.25 µM; in the assay on OVCAR-5 ovarian, 1.32 µM; with HS 578T breast it was 1.26 µM. In addition, the TGI with NCI-H460 lung was 3.61 µM; with RPMI-8226 leukemia, 0.802 µM; in the assay on OVCAR-3 ovarian, 1.87 µM; in the assay on KM12 colon, 3.58 µM; with HOP-92 NSCLC it was 1.89 µM; in the assay on SF-295 CNS, 3.93 µM. The TGI with DU-145 prostate stood at 2.48 µM; in the assay with SF-539 CNS it was 2.52 µM; in the assay on OVCAR-5 ovarian, 2.87 µM; in the assay on HS 578T breast it was 4.38 µM.
`CCCCOC(=O)c1ccc(NC(=O)CCl)cc1`: the GI50 was 3.09 µM in the assay with NCI-H460 lung; 1.7 µM in the assay on OVCAR-3 ovarian; 2.07 µM in the assay with KM12 colon; 1.93 µM in the assay with HOP-92 NSCLC; 10.5 µM with SF-295 CNS; 1.81 µM in the assay on DU-145 prostate. Also, the GI50 in the assay on SF-539 CNS was 1.7 µM; in the assay on OVCAR-5 ovarian, 2.16 µM; in the assay with HS 578T breast, 9.16 µM. Also, the TGI was determined as 10.7 µM in the assay on NCI-H460 lung; 3.3 µM with OVCAR-3 ovarian; 4.52 µM in the assay with KM12 colon; 3.65 µM in the assay on HOP-92 NSCLC; 23.1 µM with SF-295 CNS; 3.26 µM in the assay on DU-145 prostate. The TGI in the assay with SF-539 CNS stood at 3.18 µM; in the assay on OVCAR-5 ovarian, 4.45 µM; in the assay on HS 578T breast, 57.3 µM.
On to `CN[C@@H]1C[C@H]2O[C@@](C)([C@@H]1OC)n1c3ccccc3c3c4c(c5c6ccccc6n2c5c31)C(=O)N[C@H]4O`, for which the GI50 in the assay with NCI-H460 lung was 0.0471 µM; in the assay with RPMI-8226 leukemia, 0.186 µM; with OVCAR-3 ovarian it was 0.101 µM; with KM12 colon, 0.0395 µM; with HOP-92 NSCLC, 0.00753 µM; in the assay with SF-295 CNS it was 0.0268 µM. Also, the GI50 is 0.0448 µM in the assay on DU-145 prostate, 0.0266 µM with SF-539 CNS and 0.0191 µM in the assay with HS 578T breast. The TGI is 1.23 µM in the assay on NCI-H460 lung; 1.49 µM in the assay on RPMI-8226 leukemia; 1.99 µM in the assay with OVCAR-3 ovarian; 1.07 µM with KM12 colon; 0.0613 µM in the assay with HOP-92 NSCLC; 0.26 µM with SF-295 CNS. Moreover, the results for the TGI in the assay on DU-145 prostate, in the assay on SF-539 CNS and in the assay with HS 578T breast were > 5.9 µM, 0.115 µM and 0.143 µM, respectively.
In the case of `Nc1nc2ccc3[nH]ncc3c2c2c1CCCC2`, the GI50 with NCI-H460 lung was 1.6 µM; in the assay with OVCAR-3 ovarian it was 2.78 µM; with KM12 colon, 2.82 µM; in the assay with HOP-92 NSCLC, 2.09 µM; with SF-295 CNS it was 2.49 µM; in the assay on DU-145 prostate, 2.4 µM. For the same compound, the GI50 was 1.51 µM with SF-539 CNS, 1.94 µM in the assay with OVCAR-5 ovarian and 1.95 µM with HS 578T breast. Moreover, the TGI in the assay on NCI-H460 lung was 4.56 µM; in the assay on OVCAR-3 ovarian it was 9.87 µM; in the assay with KM12 colon, 11.6 µM; in the assay on HOP-92 NSCLC, 7.79 µM; in the assay with SF-295 CNS, 10.5 µM; in the assay with DU-145 prostate, 10.7 µM. The TGI was 3.18 µM with SF-539 CNS, 8.91 µM with OVCAR-5 ovarian and 6.8 µM with HS 578T breast.
As to `CCn1c2ccc(C(=O)CCCN(C)C)cc2c2cc(C(=O)CCCN(C)C)ccc21`, the TGI in the assay with NCI-H460 lung was determined as 2.61 µM; with OVCAR-3 ovarian, 6.72 µM; in the assay with KM12 colon it was 11.2 µM; in the assay on HOP-92 NSCLC it was 9.24 µM; in the assay on SF-295 CNS, 14.5 µM; with DU-145 prostate, 8.34 µM. The values for the TGI with SF-539 CNS, in the assay on OVCAR-5 ovarian and with HS 578T breast were 2.79 µM, 9.34 µM and 6.35 µM, respectively.
For the compound `CC1(C)CCC[C@]2(C)c3cc(O)ccc3CC[C@@H]12`, the GI50 is 18.6 µM in the assay on NCI-H460 lung; 12.3 µM in the assay with RPMI-8226 leukemia; 17 µM with OVCAR-3 ovarian; 14.1 µM in the assay on KM12 colon; 20.6 µM in the assay on SF-295 CNS; 16.4 µM in the assay with DU-145 prostate. Further, the GI50 in the assay on SF-539 CNS is 18.3 µM; in the assay with OVCAR-5 ovarian, 14 µM; in the assay with HS 578T breast, 15.6 µM. Further, the TGI is 40.9 µM in the assay on NCI-H460 lung; 30.4 µM in the assay with RPMI-8226 leukemia; 34.3 µM in the assay with OVCAR-3 ovarian; 31.2 µM in the assay with KM12 colon; 44.6 µM with SF-295 CNS; 30.6 µM with DU-145 prostate. The values for the TGI with SF-539 CNS, in the assay with OVCAR-5 ovarian and with HS 578T breast were 33.1 µM, 27.9 µM and 31.3 µM, respectively.
In the case of `O=C(O)C1C(=O)Oc2c(cccc2[N+](=O)[O-])C1O` (stereo not drawn), the TGI with NCI-H460 lung, in the assay with RPMI-8226 leukemia, with OVCAR-3 ovarian, in the assay on HOP-92 NSCLC, in the assay on SF-295 CNS and in the assay on DU-145 prostate was > 100 µM in each case. The TGI in the assay on SF-539 CNS, with OVCAR-5 ovarian and with HS 578T breast was > 100 µM each time.

Values taken from PubChem BioAssay (NCI).
